Measured values published in paper PMC11963566, “A phase I, single-center, randomized, open-label, three-period crossover study to evaluate the drug–drug interaction between ZSP1273 and oseltamivir in healthy Chinese subjects” (Antimicrobial Agents and Chemotherapy, 2025).
Read-outs that look alike come from different tables or passages of the source.

Legend:
[1] = cited from earlier work
[2] = for AUC0-t,ss / AUC0-τ,ss / AUC0-∞,ss / CLss/F / Cmax,ss / Vz/F / t1/2,ss / λz / Ctrough: arithmetic mean ± SD; for Tmax,ss: median (minimum, maximum)
[3] = clinical; settings: human
[4] = cited from earlier work; remark: listed apart in the source
[5] = tested on: influenza A (2009 H1N1); settings: compared with oseltamivir or pimodivir; cited from earlier work
[6] = tested on: influenza A; settings: adult patients, especially 600 mg once per day; cited from earlier work
[7] = Safety assessment: adverse events (CTCAE 5.0, MedDRA 23.1) in healthy subjects; type: in vivo, human
Method: Safety assessment was conducted from the first administration of the investigational drug until the end of the trial. Safety indicators included adverse events (AEs), serious adverse events (SAEs), clinical laboratory tests (hematology, biochemistry, and urinalysis), vital signs, physical examination, and 12-lead electrocardiogram.
The severity of AE was assessed according to the CTCAE 5.0 standard and includes grades 1 to 5. Based on the criteria for determining causality between drugs and adverse events, the relationship was classified into five levels: definitely related, probably related, possibly related, probably not related, definitely not related. Among them, definitely related, probably related, and possibly related are defined as drug-related AEs.
Adverse events were coded using Med DRA 23.1 Chinese ([30]) and analyzed based on system organ class (SOC) and preferred term (PT). Adverse events during the treatment period, drug-related adverse events, and serious adverse events were described by frequency, number of cases (n), and incidence rate (%) according to SOC, PT, and the highest severity classification.

[8] = doses up to 1,200 mg; cited from earlier work
[9] = all subjects, no-effect boundary 80%–125%
[10] = co-administration ZSP1273 600 mg QD + oseltamivir 75 mg BID, oral, 5 days, plasma, day 5
[11] = co-administration ZSP1273 + oseltamivir, plasma, day 5
[12] = co-administration versus monotherapy analysis
[13] = monotherapy (ZSP1273 600 mg QD or oseltamivir 75 mg BID, oral, 5 days), plasma, day 5
[14] = subjects with AUC_%Extrap >20.0% or Rsq <0.800 excluded
[15] = SOC Gastrointestinal disorders, probably related
[16] = SOC General disorders and administration site conditions, possibly related
[17] = SOC Infections and infestations, probably not related
[18] = SOC Investigations, possibly related
[19] = SOC Investigations, probably not related
[20] = SOC Skin and subcutaneous tissue disorders, possibly related
[21] = healthy subjects, 5 days dosing

CCC(CC)O[C@@H]1C=C(C(=O)O)C[C@H](N)[C@H]1NC(C)=O [Oseltamivir carboxylate, oseltamivir carboxylate]
plasma protein binding rate [1]: approximately 3% | AUC0-∞,ss, geometric mean ratio co-administration/monotherapy [2, 9]: 87.1% | AUC0-t,ss, geometric mean ratio co-administration/monotherapy ([2]; human, in vivo): 86.7% | AUC0-τ,ss, geometric mean ratio co-administration/monotherapy ([2]; human, in vivo): 83.3% | AUC0-∞,ss, intra-individual coefficient of variation ([2]; human, in vivo): 8.4% | Cmax,ss, geometric mean ratio co-administration/monotherapy ([2]; human, in vivo): 80.4% | AUC(0-t) ([3]; in vivo, AUC0-t,ss, geometric mean): 5080 ng·h/mL | AUC ([3]; in vivo, AUC0-τ,ss, geometric mean): 3320 ng·h/mL | AUC(0-inf) ([3]; in vivo, AUC0-∞,ss, geometric mean): 5170 ng·h/mL | Cmax ([3]; in vivo, Cmax,ss, geometric mean): 393 ng/mL | Tmax ([3]; in vivo, po, Tmax,ss): 4 h | half-life ([3]; in vivo, po, t1/2,ss): 10.3 ± 1.6 h | k el ([3]; plasma, po, 75 mg): 1.92e-05 s⁻¹ | fraction excreted by the kidneys [4]: more than 99%

O=C(O)[C@H]1C2CCC(CC2)[C@@H]1Nc1nc(-c2n[nH]c3ncc(F)cc23)nc(C2CC2)c1F [ZSP1273]
pulmonary viral loads and mortality [5]: effectively reduced pulmonary viral loads and mortality | efficacy versus placebo [6]: higher efficacy than placebo in ameliorating influenza symptoms and lowering the viral load | plasma protein binding rate ([1]; in humans, not measured in this study, no reference given): greater than 98.9% | AUC0-∞,ss, intra-individual coefficient of variation ([2]; all subjects): 23.4% | AUC0-∞,ss, geometric mean ratio co-administration/monotherapy [2, 9]: 91.8% | AUC0-t,ss [2, 10]: 14,939.0 ± 6,027.0 (40.3%) h*ng/mL | AUC0-τ,ss [2, 10]: 13,656.5 ± 4,758.0 (34.8%) h*ng/mL | AUC0-∞,ss [2, 10]: 15,865.8 ± 6,635.4 (41.8%) h*ng/mL | CLss/F [2, 10]: 48.6 ± 15.3 (31.4%) L/h | Cmax,ss [2, 10]: 6,270.0 ± 3,369.7 (53.7%) ng/mL | Vz/F [2, 10]: 923.8 ± 659.5 (71.4%) L | t1/2,ss [2, 10]: 14.0 ± 10.3 (73.5%) h | λz [2, 10]: 0.070 ± 0.041 (58.7%) 1 /h | Tmax,ss [2, 10]: 1.50 (0.25, 4.00) h | Ctrough ([2]; co-administration ZSP1273 600 mg QD + oseltamivir 75 mg BID, oral, 5 days, plasma): 77.7 ± 49.7 (64.0%) ng/mL | AUC0-t,ss, geometric mean [2, 11]: 13,926.7 h*ng/mL | AUC0-τ,ss, geometric mean [2, 11]: 12,964.7 h*ng/mL | Cmax,ss, geometric mean [2, 11]: 5,466.0 ng/mL | AUC0-∞,ss, geometric mean ([2]; co-administration ZSP1273 + oseltamivir, plasma, day 5, all subjects): 14,749.3 h*ng/mL | AUC0-t,ss, intra-individual coefficient of variation [2, 12]: 19.9% | AUC0-τ,ss, intra-individual coefficient of variation [2, 12]: 18.6% | Cmax,ss, intra-individual coefficient of variation [2, 12]: 49.2% | AUC0-∞,ss, geometric mean ([2]; co-administration, subjects with AUC_%Extrap >20.0% or Rsq <0.800 excluded): 14,219.8^b h*ng/mL | AUC0-t,ss, geometric mean ratio co-administration/monotherapy ([2]; human, in vivo): 92.8% | AUC0-τ,ss, geometric mean ratio co-administration/monotherapy ([2]; human, in vivo): 96.3% | Cmax,ss, geometric mean ratio co-administration/monotherapy ([2]; human, in vivo): 99.9% | AUC0-t,ss [2, 13]: 16,529.6 ± 7,808.2 (47.2%) h*ng/mL | AUC0-τ,ss [2, 13]: 14,487.1 ± 5,519.8 (38.1%) h*ng/mL | AUC0-∞,ss [2, 13]: 18,392.1 ± 12,058.8 (65.6%) h*ng/mL | CLss/F [2, 13]: 47.4 ± 17.8 (37.5%) L/h | Vz/F [2, 13]: 1,006.5 ± 1,265.7 (125.8%) L | t1/2,ss [2, 13]: 17.8 ± 33.6 (189.1%) h | λz [2, 13]: 0.074 ± 0.046 (62.5%) 1 /h | Tmax,ss [2, 13]: 0.88 (0.25, 4.01) h | Ctrough ([2]; monotherapy (ZSP1273 600 mg QD or oseltamivir 75 mg BID, oral, 5 days), plasma): 86.3 ± 77.4 (89.6%) ng/mL | Cmax,ss ([2]; monotherapy (ZSP1273 tablets 600 mg QD or oseltamivir capsules 75 mg BID, oral, 5 days), plasma, day 5): 6,421.7 ± 3,660.6 (57.0%) ng/mL | AUC0-t,ss, geometric mean ([2]; monotherapy, plasma, day 5): 15,031.4 h*ng/mL | AUC0-τ,ss, geometric mean ([2]; monotherapy, plasma, day 5): 13,543.4 h*ng/mL | Cmax,ss, geometric mean ([2]; monotherapy, plasma, day 5): 5,517.1 ng/mL | AUC0-∞,ss, geometric mean ([2]; monotherapy, plasma, day 5, all subjects): 16,036.9 h*ng/mL | AUC0-∞,ss, geometric mean ([2]; monotherapy, subjects with AUC_%Extrap >20.0% or Rsq <0.800 excluded): 15,576.5^a h*ng/mL | AUC0-∞,ss, geometric mean ratio co-administration/monotherapy [2, 14]: 94.5% | AUC0-∞,ss, intra-individual coefficient of variation [2, 14]: 18.8% | Gastrointestinal disorders (SOC): Cases (%) ([7]; AE by system organ class): 5 (13.9) Cases (%) | Gastrointestinal disorders (SOC): Occurrences ([7]; AE by system organ class): 5 | General disorders and administration site conditions (SOC): Cases (%) ([7]; AE by system organ class): 0 Cases (%) | General disorders and administration site conditions (SOC): Occurrences ([7]; AE by system organ class): 0 | Infections and infestations (SOC): Cases (%) ([7]; AE by system organ class): 0 Cases (%) | Infections and infestations (SOC): Occurrences ([7]; AE by system organ class): 0 | Investigations (SOC): Cases (%) ([7]; AE by system organ class): 8 (22.2) Cases (%) | Investigations (SOC): Occurrences ([7]; AE by system organ class): 18 | Skin and subcutaneous tissue disorders (SOC): Cases (%) ([7]; AE by system organ class): 1 (2.8) Cases (%) | Skin and subcutaneous tissue disorders (SOC): Occurrences ([7]; AE by system organ class): 1 | Diarrhea: Cases (%) [7, 15]: 5 (13.9) Cases (%) | Diarrhea: Occurrences [7, 15]: 5 | Fever: Cases (%) [7, 16]: 0 Cases (%) | Fever: Occurrences [7, 16]: 0 | Upper respiratory tract infection (URTI): Cases (%) [7, 17]: 0 Cases (%) | Upper respiratory tract infection (URTI): Occurrences [7, 17]: 0 | Decreased blood triglycerides: Cases (%) [7, 18]: 0 Cases (%) | Decreased blood triglycerides: Occurrences [7, 18]: 0 | Decreased high-density lipoprotein (HDL): Cases (%) [7, 18]: 1 (2.8) Cases (%) | Decreased high-density lipoprotein (HDL): Occurrences [7, 18]: 1 | Decreased neutrophil count: Cases (%) [7, 18]: 0 Cases (%) | Decreased neutrophil count: Occurrences [7, 18]: 0 | Increased blood cholesterol: Cases (%) [7, 18]: 2 (5.6) Cases (%) | Increased blood cholesterol: Occurrences [7, 18]: 2 | Increased blood creatinine: Cases (%) [7, 18]: 3 (8.3) Cases (%) | Increased blood creatinine: Occurrences [7, 18]: 3 | Increased blood triglycerides: Cases (%) [7, 18]: 4 (11.1) Cases (%) | Increased blood triglycerides: Occurrences [7, 18]: 4 | Increased blood uric acid: Cases (%) [7, 18]: 2 (5.6) Cases (%) | Increased blood uric acid: Occurrences [7, 18]: 2 | Increased gamma-glutamyl transferase (GGT): Cases (%) [7, 18]: 1 (2.8) Cases (%) | Increased gamma-glutamyl transferase (GGT): Occurrences [7, 18]: 1 | Increased lipase: Cases (%) [7, 18]: 1 (2.8) Cases (%) | Increased lipase: Occurrences [7, 18]: 1 | Increased low-density lipoprotein (LDL): Cases (%) [7, 18]: 2 (5.6) Cases (%) | Increased low-density lipoprotein (LDL): Occurrences [7, 18]: 2 | Crystals present in urine: Cases (%) [7, 19]: 0 Cases (%) | Crystals present in urine: Occurrences [7, 19]: 0 | Decreased hemoglobin: Cases (%) [7, 19]: 2 (5.6) Cases (%) | Decreased hemoglobin: Occurrences [7, 19]: 2 | Increased urine specific gravity: Cases (%) [7, 19]: 0 Cases (%) | Increased urine specific gravity: Occurrences [7, 19]: 0 | Nitrites present in urine: Cases (%) [7, 19]: 0 Cases (%) | Nitrites present in urine: Occurrences [7, 19]: 0 | Positive urine occult blood: Cases (%) [7, 19]: 0 Cases (%) | Positive urine occult blood: Occurrences [7, 19]: 0 | Protein detected in urine: Cases (%) [7, 19]: 0 Cases (%) | Protein detected in urine: Occurrences [7, 19]: 0 | Acneiform dermatitis: Cases (%) [7, 20]: 0 Cases (%) | Acneiform dermatitis: Occurrences [7, 20]: 0 | Maculopapular rash: Cases (%) [7, 20]: 1 (2.8) Cases (%) | Maculopapular rash: Occurrences [7, 20]: 1 | diarrhea, incidence ([7]; drug-related adverse event): 13.9% | increased blood triglycerides, incidence ([7]; drug-related adverse event): 11.1% | subjects with drug-related adverse events, incidence ([7]; healthy subjects): 30.6% | At least one treatment-emergent adverse event (TEAE): Cases (%) [7, 21]: 12 (33.3) Cases (%) | At least one treatment-emergent adverse event (TEAE): Occurrences [7, 21]: 24 | At least one treatment-emergent adverse event related to drugs: Cases (%) [7, 21]: 11 (30.6) Cases (%) | At least one treatment-emergent adverse event related to drugs: Occurrences [7, 21]: 22 | safety in healthy volunteers [8]: no apparent safety concerns were noticed
